The values that follow are results of earlier work, collected in patent US20050277634A1, “Liquid composition for veterinary medicine and process for the preparation and use thereof” (Boehringer Ingelheim Vetmedica GmbH, priority 2004, published 2005).

For this data set the following is noted: injectable solution, subcutaneous administration.

`Cc1cnc(NC(=O)C2=C(O)c3ccccc3S(=O)(=O)N2C)s1` [meloxicam]: the Bioavailability entry is listed as “fully bioavailable” and the “Time to maximum plasma concentrations” value was “after a few hours”.
